One series addresses Beta-lactamase TEM (Bacteria, UniProt P62593). Briefly: Inhibition of bacterial Beta-lactamase TEM-1 (24 - 286) (unknown origin) expressed in Escherichia coli Transetta (DE3).
A short description of series [1]: Inhibition of bacterial Beta-lactamase KPC-2 (29 - 289) (unknown origin) expressed in Escherichia coli Transetta (DE3). The arrangement: species or system Bacteria.
Series [2] in a line: Inhibition of bacterial Beta-lactamase SFH-1 (3 - 234) expressed in Escherichia coli Transetta (DE3). The arrangement: species or system Bacteria.
Series [3] is described as follows: Inhibition of bacterial New Delhi metallo-beta-lactamase 1 (1- 270) (unknown origin) expressed in Escherichia coli Transetta (DE3). The arrangement: species or system Bacteria.
Series [4] can be described thus: Inhibition of bacterial Beta-lactamase OXA-48 (1 - 265) (unknown origin) expressed in Escherichia coli Transetta (DE3). The arrangement: species or system Bacteria.
The nature of series [5]: Inhibition of bacterial Beta-lactamase VIM-1 (27 - 266) (unknown origin) expressed in Escherichia coli Transetta (DE3). The arrangement: species or system Bacteria.
A short description of series [6]: Inhibition of bacterial Beta-lactamase AmpC (20 - 377) (unknown origin) expressed in Escherichia coli Transetta (DE3). The arrangement: species or system Bacteria.
In the next series the test system is HEK-293T. Briefly: Cytotoxicity against human HEK293T cells assessed as reduction in cell viability at 10 to 100 uM. The series is classed as cell-based. The settings on record: dose 10-100 µM.
Series [7] has as its system Escherichia coli. Kind of series: Potentiation of meropenem-induced antibacterial activity against KPC-2 producing Escherichia coli BAA2340 assessed as MIC of meropenem at 100 uM. In kind it is functional.
Series [8] deals with Klebsiella pneumoniae. Briefly: Potentiation of meropenem-induced antibacterial activity against AmpC/TEM-1 producing Klebsiella pneumoniae C692 assessed as MIC of meropenem at 10 uM. In kind it is functional.
The test system of series [9] is Escherichia coli. Briefly: Potentiation of meropenem-induced antibacterial activity against KPC-2 producing Escherichia coli 11119 assessed as MIC of meropenem at 10 uM. In kind it is functional.
The subject of series [10] is Klebsiella pneumoniae. Kind of series: Potentiation of meropenem-induced antibacterial activity against AmpC/TEM-1 producing Klebsiella pneumoniae C692 assessed as MIC of meropenem at 100 uM. The series is classed as functional.
In series [11] the test system is Escherichia coli. Briefly: Potentiation of meropenem-induced antibacterial activity against KPC-2 producing Escherichia coli BAA2340 assessed as MIC of meropenem at 10 uM. The series is classed as functional.
For series [12], the system named is Escherichia coli. Briefly: Potentiation of meropenem-induced antibacterial activity against KPC-2 producing Escherichia coli 11119 assessed as MIC of meropenem at 100 uM. In kind it is functional.
In a further series the target is Beta-lactamase (Klebsiella pneumoniae, UniProt Q93LQ9). Briefly: Inhibition of Klebsiella pneumoniae KPC-2.
Chain of Beta-lactamase (Q93LQ9 whole entry): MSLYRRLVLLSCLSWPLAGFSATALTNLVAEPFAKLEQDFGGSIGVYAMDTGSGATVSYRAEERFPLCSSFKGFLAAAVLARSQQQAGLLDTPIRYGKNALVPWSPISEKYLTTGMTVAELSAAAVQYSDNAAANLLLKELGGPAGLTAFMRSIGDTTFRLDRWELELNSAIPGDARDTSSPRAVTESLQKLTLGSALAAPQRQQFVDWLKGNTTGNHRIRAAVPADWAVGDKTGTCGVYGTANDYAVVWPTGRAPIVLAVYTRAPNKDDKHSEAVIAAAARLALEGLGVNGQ
Series [13] deals with Klebsiella pneumoniae. Kind of series: Antibacterial activity against AmpC/TEM-1 producing Klebsiella pneumoniae C692. In kind it is functional.
The subject of series [14] is Escherichia coli. Kind of series: Antibacterial activity against Escherichia coli ATCC 25922. The series is classed as functional.
Series [15] relates to Escherichia coli. Kind of series: Antibacterial activity against KPC-2 producing Escherichia coli 11119. In kind it is functional.
The test system of series [16] is Escherichia coli. Briefly: Antibacterial activity against KPC-2 producing Escherichia coli BAA2340. In kind it is functional.

From ChEMBL document CHEMBL4813997, “Discovery of 3-aryl substituted benzoxaboroles as broad-spectrum inhibitors of serine- and metallo-β-lactamases” (Bioorg Med Chem Lett, 2021) come the findings set out here.

SMILES strings stand for the structures. pIC50: −log10 of the molar value. Values after ≈ are worked out from the molar mass of the structure shown.

Chain of Beta-lactamase TEM (P62593 whole entry): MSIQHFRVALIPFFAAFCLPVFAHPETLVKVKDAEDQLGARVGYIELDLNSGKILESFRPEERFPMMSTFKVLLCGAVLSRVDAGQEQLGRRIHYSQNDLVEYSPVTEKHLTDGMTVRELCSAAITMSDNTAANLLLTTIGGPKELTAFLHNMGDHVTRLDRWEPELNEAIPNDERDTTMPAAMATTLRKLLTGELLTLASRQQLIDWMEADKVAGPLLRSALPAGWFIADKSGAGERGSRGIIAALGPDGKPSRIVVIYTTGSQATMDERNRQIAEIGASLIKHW

As to `CNc1ccc(C2OB(O)c3cccc(F)c32)cc1` (stereo unspecified), the pIC50 (commonly −log10 of the IC50, conventionally taken in molar units) on Beta-lactamase TEM is 4.42; in [1], 5.62; in series [2], 5.94; in series [3], 4.29; in series [4], 5.19; in [5] it was less than 4.00. Besides, the pIC50 in series [6] was 4.82.

As for `OB1OC(c2c[nH]c3ccc(Br)cc23)c2ccc(F)cc21` (stereo unspecified), the pIC50 (against Beta-lactamase TEM; in [1]; in [2]; in [3]; in series [4]; in [5]) was less than 4.00 each time. The molecule also had a negative-log IC50 (pIC50) in series [6] of less than 4.00.

With `CN(C)c1ccc(C2OB(O)c3ccc(Cl)cc32)cc1` (stereo unspecified), the negative logarithm of the IC50 (pIC50) is 5.81 on Beta-lactamase TEM; 7.07 in series [1]; 5.42 in [2]; 5.04 in [3]; 5.63 in series [4]; less than 4.00 in series [5]. This molecule showed a pIC50 in series [6] of 4.64. Moreover, the Activity entry in the series on HEK-293T is “Non-Toxic”. For the same molecule, the minimal inhibitory concentration (MIC) (in general, the lowest concentration found to suppress growth) was 0.5 µg/mL with Escherichia coli [7]; more than 128 µg/mL with Klebsiella pneumoniae [8]; 32 µg/mL in the series with Escherichia coli [9]; more than 128 µg/mL in the series with Klebsiella pneumoniae [10]; 2 µg/mL in the series on Escherichia coli [11]; 8 µg/mL in the series with Escherichia coli [12].

In the case of `CN(C)c1ccc(C2OB(O)c3cccc(F)c32)cc1` (stereo unspecified), the negative logarithm of the IC50 (pIC50) against Beta-lactamase TEM was 4.68; in [1] it was 5.72; in series [2] it was 5.74; in [3], 4.59; in series [4], 5.13; in series [5] it was less than 4.00. In addition, the negative logarithm of the IC50 (pIC50) in series [6] was 4.82.

Turning to `CN(C)c1ccc(C2OB(O)c3cc(Cl)ccc32)cc1` (stereo unspecified), the pIC50 against Beta-lactamase TEM was 5.36; in [1], 6.09; in [2] it was 6.33; in [3], 4.21; in [4], 5.71; in series [5], less than 4.00. The pIC50 in [6] is 5.44.

As to `OB1OC(c2c[nH]c3ccc(Cl)cc23)c2ccccc21` (stereo unspecified), the pIC50 against Beta-lactamase TEM is less than 4.00; in series [1], 6.70; in series [2], 4.73; in series [3], less than 4.00; in [4] it was less than 4.00; in series [6], 5.25.

Regarding `OB1OC(c2ccc(N3CCCCC3)cc2)c2ccccc21` (stereo unspecified), the pIC50 is 4.48 on Beta-lactamase TEM; 6.29 in series [1]; 5.28 in [2]; 4.93 in series [3]; 5.46 in [4]; 4.73 in series [5]. The molecule also gave a pIC50 in [6] of 4.49.

Turning to `OB1OC(c2c[nH]c3ccc(F)cc23)c2ccccc21` (stereo unspecified), the negative-log IC50 (pIC50) against Beta-lactamase TEM was 4.05; in [1], 6.44; in series [2], 5.18; in [3], less than 4.00; in series [4], less than 4.00; in series [5], 4.20. Further, the negative logarithm of the IC50 (pIC50) in series [6] was 5.14.

As to `OB1OC(c2c[nH]c3ccc(OCc4ccccc4)cc23)c2ccccc21` (stereo unspecified), the pIC50 (against Beta-lactamase TEM; in [1]; in series [2]; in series [3]; in [4]; in series [5]) was less than 4.00 throughout. In series [6], this molecule had a pIC50 of less than 4.00.

For `OB1OC(c2c[nH]c3ccc(Br)cc23)c2ccccc21` (stereo unspecified), the pIC50 against Beta-lactamase TEM is less than 4.00; in series [1], 5.03; in series [2], 4.83; in [3], 4.62; in series [4], less than 4.00; in series [5] it was 4.88. In [6], this molecule had a pIC50 of 4.59.

In the case of `OB1OC(c2ccccc2)c2ccccc21` (stereo unspecified), the negative logarithm of the IC50 (pIC50) is 5.35 at Beta-lactamase TEM; 6.00 in [1]; 5.45 in [2]; 4.05 in [3]; 5.06 in series [4]; 4.13 in series [5]. The molecule also had a negative-log IC50 (pIC50) in series [6] of 4.53.

`COc1ccc2c(c1)C(c1ccc(N(C)C)cc1)OB2O` (stereo unspecified): the negative-log IC50 (pIC50) was 5.81 on Beta-lactamase TEM; 6.74 in [1]; 5.37 in [2]; 4.42 in series [3]; 5.53 in series [4]; less than 4.00 in series [5]. In series [6], this molecule had a pIC50 of 4.94.

On to `Cc1ccc2[nH]cc(C3OB(O)c4ccccc43)c2c1` (stereo unspecified), for which the pIC50 against Beta-lactamase TEM was less than 4.00; in series [1] it was 6.66; in [2] it was 4.71; in [3] it was 4.17; in [4], less than 4.00; in series [5], 4.79. For the same molecule, the pIC50 in series [6] is 5.07.

As for `OB1OC(c2cn(Cc3ccccc3)c3ccccc23)c2ccccc21` (stereo unspecified), the negative-log IC50 (pIC50) against Beta-lactamase TEM is less than 4.00; in series [1], less than 4.00; in series [2] it was 5.02; in series [3], 4.80; in series [4], less than 4.00; in series [5], 4.97. In [6], this molecule gave a negative logarithm of the IC50 (pIC50) of less than 4.00.

In the case of `CN(C)c1ccc(C2OB(O)c3ccc(F)cc32)cc1` (stereo unspecified), the pIC50 against Beta-lactamase TEM was 5.25; in series [1], 6.46; in [2] it was 5.44; in series [3] it was 4.95; in series [4], 5.45; in series [5], less than 4.00. Also, in series [6], the pIC50 was 4.41.

On to `CNc1ccc(C2OB(O)c3ccccc32)cc1` (stereo unspecified), for which the negative-log IC50 (pIC50) against Beta-lactamase TEM was 5.49; in series [1], 7.00; in series [2], 5.52; in [3], 4.24; in series [4] it was 5.63; in series [5] it was 4.58. This molecule also gave a pIC50 in [6] of 4.86.

Consider `OB1OC(c2c[nH]c3ccccc23)c2ccccc21` (stereo unspecified), for which the negative-log IC50 (pIC50) against Beta-lactamase TEM was less than 4.00; in series [1], 5.59; in [2], 5.07; in series [3] it was 5.22; in series [4] it was less than 4.00; in [5] it was 4.82. The same molecule had a pIC50 in series [6] of 5.44.

For `CN(C)c1ccc(C2OB(O)c3ccccc32)cc1` (stereo unspecified), the pIC50 is 6.14 on Beta-lactamase TEM; 6.74 in [1]; 5.60 in series [2]; 5.07 in [3]; 5.62 in series [4]; 4.40 in series [5]. In series [6], this molecule gave a pIC50 of 5.08.

As to `OB1OC(c2c[nH]c3ccccc23)c2c(F)cccc21` (stereo unspecified), the pIC50 against Beta-lactamase TEM was less than 4.00; in series [1], 5.18; in series [2], 5.66; in series [3] it was 4.60; in series [4], less than 4.00; in series [5], 4.05. This molecule showed a pIC50 in [6] of 4.97.

In the case of `OB1OC(c2cccs2)c2ccccc21` (stereo unspecified), the pIC50 is 5.16 against Beta-lactamase TEM; 6.39 in series [1]; 5.61 in [2]; 4.65 in series [3]; 5.26 in [4]; 4.76 in series [5]. In series [6], this molecule gave a negative-log IC50 (pIC50) of 4.73. Further, in the series on HEK-293T, the Activity result was “Non-Toxic”. Also, the MIC in the series on Escherichia coli [7] is 0.5 µg/mL; in the series with Klebsiella pneumoniae [8], more than 128 µg/mL; with Escherichia coli [9] it was 32 µg/mL; in the series with Klebsiella pneumoniae [10], more than 128 µg/mL; with Escherichia coli [11], 2 µg/mL; in the series with Escherichia coli [12], 2 µg/mL.

Consider `CN(C)c1ccc(C2OB(O)c3cc4c(cc32)OCO4)cc1` (stereo unspecified), for which the negative logarithm of the IC50 (pIC50) on Beta-lactamase TEM was 5.94; in [1], 6.12; in series [2], 5.56; in series [3], 4.78; in series [4] it was 5.19; in series [5], 4.29. The molecule further gave a pIC50 in [6] of 5.28.

With `NC(=O)[C@@H]1CC[C@@H]2CN1C(=O)N2OS(=O)(=O)O` [AVIBACTAM], the negative logarithm of the IC50 (pIC50) in series [1] is 8.43; in [2], 7.60; in [3], less than 4.00; in series [4], 6.77; in series [5], less than 4.00; in [6] it was 7.62.

Molecule `N#Cc1ccc(Oc2ccc3c(c2)COB3O)cc1` [CRISABOROLE] had a pIC50 against Beta-lactamase of 6.17.

Turning to `C[C@@H](O)[C@H]1C(=O)N2C(C(=O)O)=C(S[C@@H]3CN[C@H](C(=O)N(C)C)C3)[C@H](C)[C@H]12` [MEROPENEM], the MIC against Klebsiella pneumoniae [13] is more than 128 µg/mL; against Escherichia coli [14], 0.06 µg/mL (≈ 0.156 µM); against Escherichia coli [15], 64 µg/mL (≈ 167 µM); against Escherichia coli [16], 16 µg/mL (≈ 41.7 µM).
